Our source for the MIC values is patent US4698352A, “4-oxo-1,4-dihydronicotinic acid derivatives, salts thereof, and antibacterial agents containing the same” (Toyama Chemical Co., Ltd., priority 1982, dated 1987).

Molecules are shown by their SMILES. Converted amounts (≈) assume the structure as drawn. Where two headings read alike, the source gives them in different places.

Common to all, as to test: Antibacterial activity (MIC), agar dilution
Type in all cases: cell-based
For orientation: In agar dilution the substance is mixed into plates at graded concentrations.

One assay has as its system Aci. antitratus A-6. The following applies: 20 h. An excerpt: (§1) The amount of bacteria inoculated was 10^4 cells per plate (10^6 cells per ml).
A further assay deals with E. coli NIHJ JC-2. The following applies: Escherichia coli, NIHJJC2, 20 h.
Excerpt: as §1

The subject of another assay is E. coli TK-111. The following applies: Escherichia coli, TK111, 20 h.
Excerpt: as §1

A further assay relates to Ent. cloacae IID977. The following applies: Enterobacter cloacae, IID977, 20 h.
Excerpt: as §1

Another assay deals with Kl. pneumoniae Y-41. The following applies: Klebsiella pneumoniae, Y41, 10^6 cells per ml, 37° C., 20 hours, read-out: MIC.
Excerpt: as §1

In the next assay the test system is Kl. pneumoniae Y-50. The following applies: Klebsiella pneumoniae, Y50, 20 h, 10^6 cells per ml, 37° C., read-out: MIC.
Excerpt: as §1

The next assay deals with Pro. mirabilis T-111. The following applies: Proteus mirabilis, 37° C.
Excerpt: as §1

Another assay deals with Pro. morganii T-216. The following applies: Morganella morganii, 37° C.
Excerpt: as §1

A further assay has as its system Pro. vulgaris GN3027. The following applies: Proteus vulgaris, GN3027, 20 h, Pro. vulgaris GN3027; 10^6 cells per ml; 37° C., 20 hours; read-out: MIC.
Excerpt: as §1

For another assay, the system named is Ps. aeruginosa IFO3445. The following applies: Pseudomonas aeruginosa.
Excerpt: as §1

The next assay has as its system Ps. aeruginosa S-68. The following applies: Pseudomonas aeruginosa.
Excerpt: as §1

A further assay relates to St. aureus FDA209P. The following applies: Staphylococcus aureus, FDA209P, 20 h.
Excerpt: as §1

The subject of another assay is E. coli TK-3*. The following applies: Escherichia coli, 20 h.
Excerpt: as §1
(§2) * Penicillinase-producing bacteria

The test system of another assay is Kl. pneumoniae Y-4*. The following applies: Klebsiella pneumoniae, 20 h, Kl. pneumoniae Y-4, penicillinase-producing, 10^6 cells per ml.
Excerpt: as §1, §2

The next assay has as its system Ps. aeruginosa GN3379*. The following applies: Pseudomonas aeruginosa, Ps. aeruginosa GN3379, penicillinase-producing, 10^6 cells per ml.
Excerpt: as §1, §2

In a further assay the test system is St. aureus F-137*. The following applies: Staphylococcus aureus, 20 h, St. aureus F-137, penicillinase-producing; 10^6 cells per ml; read-out: MIC.
Excerpt: as §1, §2

Another assay relates to E. coli GN5482**. The following applies: Escherichia coli, 20 h; E. coli GN5482, cephalospolinase-producing; 10^6 cells per ml; read-out: MIC.
Excerpt: as §1
(§3) ** Cephalospolinase-producing bacteria

For another assay, the system named is Pro. vulgaris GN76**. The following applies: Proteus vulgaris.
Excerpt: as §1, §3

The subject of the next assay is Ps. aeruginosa GN918**. The following applies: Pseudomonas aeruginosa, Ps. aeruginosa GN918, cephalospolinase-producing, 10^6 cells per ml.
Excerpt: as §1, §3

[1] abbreviates: Aci. antitratus A-6, 10^6 cells per ml, 37° C., 20 hours, read-out: MIC.
[2] abbreviates: E. coli NIHJ JC-2, 10^6 cells per ml, 37° C., 20 hours, read-out: MIC.
Where [3] appears, read: E. coli TK-111, 10^6 cells per ml, 37° C., 20 hours, read-out: MIC.
The mark [4] stands for this setting: Ent. cloacae IID977, 10^6 cells per ml, 37° C., 20 hours, read-out: MIC.
The mark [5] stands for this setting: T111, 10^6 cells per ml, 20 hours, read-out: MIC.
The mark [6] stands for this setting: T216, 10^6 cells per ml, 20 hours, read-out: MIC.
[7] abbreviates: St. aureus FDA209P, 10^6 cells per ml, 37° C., 20 hours, read-out: MIC.
Setting [8] is: E. coli TK-3, penicillinase-producing, 10^6 cells per ml, read-out: MIC.
The mark [9] stands for this setting: 20 h, Pro. vulgaris GN76, cephalospolinase-producing, 10^6 cells per ml, read-out: MIC.
Where [10] appears, read: Ps. aeruginosa IFO3445, 10^6 cells per ml, 37° C., 20 hours, read-out: MIC.

With `O=C(O)c1cn(-c2ccc(O)cc2F)c(-c2cc3ccccc3s2)cc1=O`, the MIC (as a rule, the smallest concentration in the dilution series that meets the test's criterion for growth inhibition) in the assay on Aci. antitratus A-6 (setting [1]) is 0.1 µg/mL (≈ 0.262 µM); with E. coli NIHJ JC-2 (setting [2]) it was 0.2 µg/mL (≈ 0.524 µM); with E. coli TK-111 (setting [3]), no more than 0.05 µg/mL; with Ent. cloacae IID977 (setting [4]), 0.39 µg/mL (≈ 1.02 µM); with Kl. pneumoniae Y-41 it was 1.56 µg/mL (≈ 4.09 µM); with Kl. pneumoniae Y-50 it was 0.2 µg/mL (≈ 0.524 µM). The MIC in the assay on Pro. mirabilis T-111 (setting [5]) is 0.78 µg/mL (≈ 2.05 µM); in the assay with Pro. morganii T-216 (setting [6]), 0.78 µg/mL (≈ 2.05 µM); in the assay on Pro. vulgaris GN3027, no more than 0.05 µg/mL; with Ps. aeruginosa IFO3445 (IFO3445, 20 h), 1.56 µg/mL (≈ 4.09 µM); in the assay with Ps. aeruginosa S-68 (S68, 20 h) it was 1.56 µg/mL (≈ 4.09 µM); with St. aureus FDA209P (setting [7]), no more than 0.05 µg/mL. The MIC was 0.39 µg/mL (≈ 1.02 µM) in the assay with E. coli TK-3* (setting [8]); 1.56 µg/mL (≈ 4.09 µM) with Kl. pneumoniae Y-4* (read-out: MIC); 1.56 µg/mL (≈ 4.09 µM) against Ps. aeruginosa GN3379* (GN3379, 20 h); no more than 0.05 µg/mL with St. aureus F-137*; no more than 0.05 µg/mL in the assay with E. coli GN5482**; 0.2 µg/mL (≈ 0.524 µM) with Pro. vulgaris GN76** (setting [9]). In addition, in the assay with Ps. aeruginosa GN918** (20 h, read-out: MIC), the MIC came to 3.13 µg/mL (≈ 8.21 µM).

Consider `CNc1ccc(-c2cc(=O)c(C(=O)O)cn2-c2ccc(F)cc2)cc1C`, for which the MIC with Aci. antitratus A-6 (setting [1]) stood at 0.78 µg/mL (≈ 2.21 µM); against E. coli NIHJ JC-2, 1.56 µg/mL (≈ 4.43 µM); in the assay with E. coli TK-111 (setting [3]), 0.39 µg/mL (≈ 1.11 µM); in the assay on Ent. cloacae IID977 it was 6.25 µg/mL (≈ 17.7 µM); with Kl. pneumoniae Y-41, 6.25 µg/mL (≈ 17.7 µM); in the assay with Kl. pneumoniae Y-50 it was 1.56 µg/mL (≈ 4.43 µM). Further, the MIC turned out to be 12.5 µg/mL (≈ 35.5 µM) with Pro. mirabilis T-111 (T111, 20 h, 10^6 cells per ml); 6.25 µg/mL (≈ 17.7 µM) in the assay with Pro. morganii T-216 (T216, 20 h, 10^6 cells per ml); 0.78 µg/mL (≈ 2.21 µM) in the assay on Pro. vulgaris GN3027; 50 µg/mL (≈ 142 µM) in the assay with Ps. aeruginosa IFO3445 (setting [10]); 12.5 µg/mL (≈ 35.5 µM) in the assay with Ps. aeruginosa S-68 (S68, 20 h); 1.56 µg/mL (≈ 4.43 µM) against St. aureus FDA209P. The MIC in the assay with E. coli TK-3* (setting [8]) came out at 3.13 µg/mL (≈ 8.88 µM); in the assay with Kl. pneumoniae Y-4* (read-out: MIC), 12.5 µg/mL (≈ 35.5 µM); in the assay on Ps. aeruginosa GN3379* (20 h, read-out: MIC), 25 µg/mL (≈ 70.9 µM); in the assay on St. aureus F-137*, 0.78 µg/mL (≈ 2.21 µM); with E. coli GN5482**, 0.2 µg/mL (≈ 0.568 µM); in the assay with Pro. vulgaris GN76** (setting [9]), 3.13 µg/mL (≈ 8.88 µM). In addition, the MIC in the assay with Ps. aeruginosa GN918** (20 h, read-out: MIC) is 50 µg/mL (≈ 142 µM).

Turning to `Cc1cc(O)ccc1-n1cc(C(=O)O)c(=O)cc1-c1ccc(N(C)C)cc1`, the MIC was 0.1 µg/mL (≈ 0.274 µM) in the assay with Aci. antitratus A-6 (setting [1]); 0.1 µg/mL (≈ 0.274 µM) in the assay on E. coli NIHJ JC-2 (setting [2]); no more than 0.05 µg/mL in the assay with E. coli TK-111 (setting [3]); 0.39 µg/mL (≈ 1.07 µM) in the assay on Ent. cloacae IID977 (setting [4]); 0.78 µg/mL (≈ 2.14 µM) in the assay with Kl. pneumoniae Y-41; 0.2 µg/mL (≈ 0.549 µM) in the assay on Kl. pneumoniae Y-50. The minimum inhibitory concentration (MIC) with Pro. mirabilis T-111 (setting [5]) was 0.78 µg/mL (≈ 2.14 µM); in the assay on Pro. morganii T-216 (setting [6]), 0.78 µg/mL (≈ 2.14 µM); with Pro. vulgaris GN3027, 0.1 µg/mL (≈ 0.274 µM); in the assay with Ps. aeruginosa IFO3445 (setting [10]) it was 3.13 µg/mL (≈ 8.59 µM); in the assay on Ps. aeruginosa S-68 (S68, Ps. aeruginosa S-68, 10^6 cells per ml, 37° C., 20 hours, read-out: MIC) it was 3.13 µg/mL (≈ 8.59 µM); in the assay on St. aureus FDA209P (setting [7]), no more than 0.05 µg/mL. The MIC with E. coli TK-3* (setting [8]) was 0.2 µg/mL (≈ 0.549 µM); against Kl. pneumoniae Y-4* it was 0.78 µg/mL (≈ 2.14 µM); in the assay on Ps. aeruginosa GN3379* (20 h, read-out: MIC), 3.13 µg/mL (≈ 8.59 µM); in the assay on St. aureus F-137*, no more than 0.05 µg/mL; in the assay with E. coli GN5482**, no more than 0.05 µg/mL; with Pro. vulgaris GN76** (setting [9]), 0.39 µg/mL (≈ 1.07 µM). The MIC in the assay with Ps. aeruginosa GN918** (20 h, read-out: MIC) is 1.56 µg/mL (≈ 4.28 µM).

As to `O=C(O)c1cn(-c2ccc(O)cc2)c(C2CC=CCC2)cc1=O` (stereo not shown), the MIC was found to be 6.25 µg/mL (≈ 20.1 µM) with Aci. antitratus A-6; 6.25 µg/mL (≈ 20.1 µM) in the assay with E. coli NIHJ JC-2; 1.56 µg/mL (≈ 5.01 µM) in the assay on E. coli TK-111; 6.25 µg/mL (≈ 20.1 µM) against Ent. cloacae IID977; 6.25 µg/mL (≈ 20.1 µM) in the assay on Kl. pneumoniae Y-41; 1.56 µg/mL (≈ 5.01 µM) in the assay with Kl. pneumoniae Y-50. In addition, the MIC came out at 12.5 µg/mL (≈ 40.1 µM) with Pro. mirabilis T-111 (T111, 20 h, 10^6 cells per ml); 3.13 µg/mL (≈ 10.1 µM) in the assay on Pro. morganii T-216 (setting [6]); 0.39 µg/mL (≈ 1.25 µM) in the assay with Pro. vulgaris GN3027; 12.5 µg/mL (≈ 40.1 µM) against Ps. aeruginosa IFO3445 (IFO3445, 20 h); 12.5 µg/mL (≈ 40.1 µM) against Ps. aeruginosa S-68 (S68, 20 h); 1.56 µg/mL (≈ 5.01 µM) in the assay with St. aureus FDA209P. Further, the MIC with E. coli TK-3* was found to be 6.25 µg/mL (≈ 20.1 µM); with Kl. pneumoniae Y-4* (read-out: MIC), 12.5 µg/mL (≈ 40.1 µM); with Ps. aeruginosa GN3379* (20 h, read-out: MIC), 25 µg/mL (≈ 80.3 µM); with St. aureus F-137* it was 3.13 µg/mL (≈ 10.1 µM); with E. coli GN5482** it was 0.39 µg/mL (≈ 1.25 µM); with Pro. vulgaris GN76** (GN76, 20 h), 1.56 µg/mL (≈ 5.01 µM). This compound also showed an MIC with Ps. aeruginosa GN918** (GN918, 20 h) of 1.56 µg/mL (≈ 5.01 µM).
